Laboratory results reported in PubChem BioAssay (NCI).
“And” between values parts separate entries of the source, which are not always exact repeats. Identical values can stand only once.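 Dose response: 5 concentrations. Exposure: 48 h. Format: 96-well plates. Endpoint: linear interpolation; highest concentration if not reached. GI50 marks 50% less growth. TGI denotes the concentration required for complete inhibition of growth.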

Assays:
Assay in all cases: DTP human tumour cell line panel, 48 h
[1] = system: HOP-92 NSCLC
[2] = system: K-562 leukemia
[3] = system: M14 melanoma
[4] = system: MOLT-4 leukemia
[5] = system: RPMI-8226 leukemia
[6] = system: RXF 393 renal
[7] = system: SF-268 CNS
[8] = system: SNB-19 CNS
[9] = system: UACC-257 melanoma
[10] = system: UACC-62 melanoma

Structure (SMILES)	GI50 [1] [µM]	TGI [1]	GI50 [2]	TGI [2] [µM]	GI50 [3]	TGI [3]	GI50 [4]	TGI [4]	GI50 [5] [µM]	TGI [5] [µM]	GI50 [6]	TGI [6]	GI50 [7]	TGI [7]	GI50 [8]	TGI [8]	GI50 [9]	TGI [9]	GI50 [10]	TGI [10]
COc1ccc2cc(-c3c(-c4ccncc4)nc(-c4ccc(S(C)=O)cc4C)n3C)ccc2c1 (stereo not drawn)	4.66	> 25 µM	13.4 µM	> 25	> 21.6 µM	> 25 µM	17.4 µM	> 25 µM	14.1	> 25	> 24.2 µM	> 25 µM	> 25 µM	> 25 µM	> 25 µM	> 25 µM	14.8 µM	> 25 µM	13.8 µM	> 25 µM
COc1cc([C@H]2c3[nH]c4ccccc4c3C[C@H]3COC(=O)N32)cc(OC)c1O	–	> 88 µM	–	> 90.3	–	> 100 µM	–	11.2 µM	–	11.1	–	1.51 µM	–	> 72.1 µM	–	> 100 µM	–	> 100 µM	–	43.4 µM
CC1(C)CC(=O)c2c(oc3cc(O)c(O)cc23)C1	–	95.2 µM	–	> 100	–	53.9 µM	–	> 100 µM	–	80.4	–	> 100 µM	–	> 100 µM	–	> 100 µM	–	> 100 µM	–	32 µM
CN(C)CCCN1c2ccccc2Sc2ccc(Cl)cc21	1.82	8.71 µM	3.16 µM	11.3	2.03 µM and 2.58 µM	3.89 µM and 6.18 µM	4.78 µM and 6.84 µM	18.4 µM and 23.7 µM	13.6	32.6	3.16 µM and 2.85 µM	12.2 µM and 11 µM	8.89 µM and 5.25 µM	21.4 µM and 18.5 µM	7.01 µM and 11.9 µM	20.9 µM and 25 µM	2.08 µM and 3.24 µM	4.33 µM and 13 µM	1.94 µM and 2.07 µM	4.01 µM and 5.11 µM
COc1ccc2c(c1)nc1n2C(c2ccc(F)cc2)SC1 (stereo not drawn)	23	> 100 µM	42.3 µM	> 100	26.3 µM	83.5 µM	26.8 µM	> 100 µM	14.8	66.3	82.9 µM	> 100 µM	33.8 µM	> 100 µM	36.5 µM	> 100 µM	28.7 µM	> 100 µM	16.6 µM	34.9 µM
CC[C@H](C)[C@H](NC(=O)[C@H]1CCCCN1C)C(=O)N(C)[C@H](C[C@@H](OC(C)=O)c1nc(C(=O)N[C@@H](Cc2ccccc2)C[C@H](C)C(=O)OC)cs1)C(C)C	0.765	> 25 µM	0.000278 µM and 0.0025 µM	> 25	0.000331 µM and < 0.0025 µM	< 0.0025 µM	0.00331 µM and 0.0025 µM	> 25 µM	–	8.97	0.0025 µM	22.7 µM	0.000466 µM and 0.0025 µM	> 25 µM	0.000431 µM and 0.0025 µM	> 25 µM	8.72 µM	> 25 µM	–	> 25 µM
CCc1cccc(CC)c1/C=C/c1cncc(C(=O)NC)c1	1.27	> 25 µM	5.62 µM	> 25	6.57 µM	18.8 µM	12.4 µM	> 25 µM	9.46	> 25	5.87 µM	24.8 µM	15.6 µM	> 25 µM	19.7 µM	> 25 µM	> 13.5 µM	> 25 µM	10 µM	> 25 µM
CC(C)(CO)N=Cc1ccccc1[O-].CC(C)(CO)N=Cc1ccccc1[O-].[Co+2]	12.9	95.7 µM	47.3 µM	> 100	38.7 µM	> 100 µM	8.39 µM	> 100 µM	30.2	> 93	> 100 µM	> 100 µM	46.3 µM	> 100 µM	> 100 µM	> 100 µM	30.1 µM	> 100 µM	24.9 µM	> 85.3 µM
COc1cc2nnn3c4ncccc4c(N=O)c3c2cc1OC	0.0657	–	0.282 µM	> 100	4.58 µM	13 µM	–	> 100 µM	0.173	> 100	0.989 µM	–	0.564 µM	19.3 µM	9.75 µM	> 74 µM	8.56 µM	> 100 µM	4.87 µM	24.5 µM
CC[C@@]1(O)C(=O)OCc2c1cc1n(c2=O)Cc2cc3c(N)cccc3nc2-1	–	1.99 µM	0.0277 µM	> 100	0.0042 µM	0.292 µM	0.00295 µM	0.0605 µM and 0.0649 µM	–	4.72	0.0893 µM	0.34 µM	0.00728 µM	3.06 µM	–	6.05 µM	–	2.99 µM	0.00361 µM	0.033 µM and 0.0638 µM
O=C(O)C1C2C=CC(O2)C1C(=O)Nc1ncccn1 (stereo not drawn)	–	> 100 µM	–	> 100	–	> 100 µM	–	> 100 µM	–	> 100	–	> 100 µM	–	> 100 µM	–	> 100 µM	–	> 100 µM	–	> 100 µM
C=CC(=O)Nc1cccc(Nc2nc(Nc3ccc(OCCOC(F)F)cc3)ncc2F)c1	2.28	6.75 µM	3.07 µM	> 100	2.54 µM	18.8 µM	3.73 µM	> 100 µM	2.48	14.7	1.09 µM	4.42 µM	2.25 µM	17.6 µM	5.6 µM	> 100 µM	5.56 µM	47.5 µM	1.73 µM	11.1 µM
CCCCCCCCCC(=O)Oc1cccc2onc(C)c12	–	> 100 µM	–	> 100	–	> 100 µM	–	> 100 µM	–	> 100	–	> 100 µM	–	> 100 µM	–	> 100 µM	–	> 100 µM	–	> 100 µM
Cc1ccc(/C=C2\CNC/C(=C\c3ccc(C)cc3)C2=O)cc1	2.21	5.49 µM and 14.5 µM	1.14 µM	2.68	–	11.2 µM	1.81 µM	4.84 µM and 19.2 µM	–	0.69	2.24 µM and 1.81 µM	3.84 µM and 3.29 µM	–	10.3 µM	1.93 µM	4.78 µM and 15 µM	1.71 µM	3.55 µM and 12.8 µM	–	4.36 µM
CCC(=O)c1cc([N+](=O)[O-])c(Br)s1	1.96	4.8 µM	2.16 µM	6.82	3.13 µM	10.6 µM	2.7 µM	13.2 µM	20.2	89	1.88 µM	3.31 µM	4.39 µM	14.6 µM	17.4 µM	35.3 µM	1.21 µM	2.52 µM	14.4 µM	28.8 µM
NC(=O)c1cc(I)ccc1NC(=O)COc1ccccc1	2.98	21.4 µM	0.214 µM	24.2	0.403 µM	> 100 µM	1.05 µM	> 78.4 µM	0.679	> 100	0.453 µM	4.53 µM	1.14 µM	26.1 µM	0.699 µM	44.1 µM	41.7 µM	> 100 µM	0.814 µM	> 100 µM
COc1cc2cc(Oc3ccc(NC(=O)c4cccc5c4OCCO5)cc3)c(C)nc2cc1OC	3.93	30.6 µM	4.81 µM	> 100	4.9 µM	> 100 µM	4.53 µM	> 100 µM	2.98	> 100	8.81 µM	> 100 µM	14.4 µM	> 100 µM	15.5 µM	> 100 µM	4.79 µM	63.5 µM	6.24 µM	> 100 µM
COc1ccc2[nH]c(-c3ccccc3)cc2c1	70	> 100 µM	86.8 µM	> 100	> 100 µM	> 100 µM	> 100 µM	> 100 µM	43.2	> 100	> 100 µM	> 100 µM	> 100 µM	> 100 µM	> 100 µM	> 100 µM	> 100 µM	> 100 µM	92.5 µM	> 100 µM
c1ccc(CC(NCCNC(Cc2ccccc2)c2ccccc2)c2ccccc2)cc1 (stereo not drawn)	0.369	1.48 µM	0.307 µM	0.89	0.302 µM	1.01 µM	0.306 µM	0.959 µM	0.243	0.524	0.26 µM	0.705 µM	0.801 µM	7.12 µM	0.964 µM	4.15 µM	1.02 µM	2.4 µM	0.491 µM	1.86 µM
COc1ccc(/C=C(/C(=O)n2cnnn2)c2cc(OC)c(OC)c(OC)c2)cc1	6.71	> 100 µM	2.86 µM	> 100	2.58 µM	> 100 µM	4.31 µM	> 100 µM	3.68	> 100	3.91 µM	> 100 µM	4.04 µM	> 100 µM	4.25 µM	> 100 µM	> 100 µM	> 100 µM	3.1 µM	> 100 µM
C/C(=N/O)c1ccc2c(c1)C(=NO)c1cc(/C(C)=N/O)ccc1-2	–	47.4 µM	–	> 100	–	31.2 µM	–	13.2 µM	–	> 100	–	48.8 µM	–	28.3 µM	–	26.8 µM	–	5.87 µM	–	38.4 µM
O=C1C(c2ccccc2)=C(c2ccccc2)[C@H](c2ccccc2)[C@]1(Cc1nnn(-c2ccc([N+](=O)[O-])cc2)c1N1CCOCC1)c1ccccc1	–	2.25 µM	–	> 37.5	–	> 37.5 µM	–	> 37.5 µM	–	> 37.5	–	> 37.5 µM	–	–	–	> 37.5 µM	–	> 37.5 µM	–	> 37.5 µM
Cc1cc([N+](=O)[O-])c(S(=O)(=O)c2ccccc2)c([N+](=O)[O-])c1	–	5.28 µM	–	> 100	–	17.6 µM	–	> 28.9 µM	–	45.9	–	4.8 µM	–	50.4 µM	–	32.9 µM	–	5.16 µM	–	> 44.3 µM
O=c1[nH]c2cc(Cl)c(Cl)cc2n2cc3ccccc3c12	18.4	34.7 µM	–	–	23 µM	39.7 µM	18.7 µM	36.7 µM	22.3	49.2	17.4 µM	31.2 µM	23.7 µM	42.6 µM	21.6 µM	56.6 µM	20.3 µM	48.6 µM	16.5 µM	30.1 µM
O=c1oc2ccc(F)cc2c(=O)n1-c1ccc(Br)cc1F	0.168	0.528 µM	0.422 µM	> 100	0.434 µM	5.08 µM	–	–	0.27	1.05	0.923 µM	4.66 µM	0.633 µM	13.7 µM	0.45 µM	> 80.8 µM	0.528 µM	7.37 µM	0.284 µM	1.16 µM
O=[N+]([O-])C1C2C=CC(C2)[C@H]1c1ccc(Cl)cc1Cl (stereo partly drawn)	–	> 100 µM	–	> 100	–	–	–	> 100 µM	–	69.1	–	74.1 µM	–	> 100 µM	–	> 100 µM	–	99 µM	–	–
CC(c1ccccc1)N1CC(C)(c2ccccc2)N(O)C(c2ccccc2)C1C (stereo not drawn)	–	8.36 µM	–	> 100	–	–	–	29.8 µM	–	62.8	–	36.8 µM	–	31.3 µM	–	> 100 µM	–	45.1 µM	–	–
c1ccc(NC[Si]23OCCN(CCO2)CCO3)cc1	–	> 100 µM	–	> 100	–	–	–	> 100 µM	–	> 100	–	> 100 µM	–	> 100 µM	–	> 100 µM	–	> 100 µM	–	> 100 µM
COc1ccc(NC(=O)c2sc3nc4c(cc3c2N)CCCC4)cc1	10.6	76.3 µM	0.309 µM	> 100	0.254 µM	1.28 µM	0.442 µM	30.5 µM	0.484	12.1	0.452 µM	4.72 µM	0.899 µM	> 100 µM	1.57 µM	> 100 µM	–	–	0.352 µM	> 100 µM
Cc1cc(=O)oc2cc(OCCn3c(C)nn(-c4ccc(Cl)cc4)c3=O)ccc12	16.1	> 100 µM	1.29 µM	> 100	2.36 µM	> 100 µM	4.71 µM	> 100 µM	11	> 100	2.76 µM	30 µM	13.6 µM	> 100 µM	5.37 µM	> 100 µM	–	–	1.99 µM	> 100 µM
